Starred links: 1 amine or outer side, 2 acyl side, 3 side chain; linkers in the order of their positions; H or OH if unused. Positions of bridges follow the written chain, without caps; N, C: chain ends. Non-standard residues stand in square brackets, D forms with d. Groups on a side chain read outwards from the residue. Chains are numbered I, II in the order given. *: point of attachment. γGlu = O=C(O)[C@H](CCC(=O)[*:2])N[*:1]; Desaminotyrosyl = O=C(CCc1ccc(O)cc1)*; Palmitoyl = CCCCCCCCCCCCCCCC(=O)*; X1 = O=C(C[*:1])[*:2]; Aib = CC(C)(N)C(=O)O
How the values were obtained:
Format in all cases: cell-based
[1] = biological target: T1, human GLP-R (Homo sapiens, UniProt P43220); assay: Cyclic AMP (cAMP) assay, cell-suspension format, stably expressed human GLP-1-receptor in CHO cells
T1 construct: host or cells: CHO-K1 (cAMP Hunter)
T1 sequence (P43220 24-463): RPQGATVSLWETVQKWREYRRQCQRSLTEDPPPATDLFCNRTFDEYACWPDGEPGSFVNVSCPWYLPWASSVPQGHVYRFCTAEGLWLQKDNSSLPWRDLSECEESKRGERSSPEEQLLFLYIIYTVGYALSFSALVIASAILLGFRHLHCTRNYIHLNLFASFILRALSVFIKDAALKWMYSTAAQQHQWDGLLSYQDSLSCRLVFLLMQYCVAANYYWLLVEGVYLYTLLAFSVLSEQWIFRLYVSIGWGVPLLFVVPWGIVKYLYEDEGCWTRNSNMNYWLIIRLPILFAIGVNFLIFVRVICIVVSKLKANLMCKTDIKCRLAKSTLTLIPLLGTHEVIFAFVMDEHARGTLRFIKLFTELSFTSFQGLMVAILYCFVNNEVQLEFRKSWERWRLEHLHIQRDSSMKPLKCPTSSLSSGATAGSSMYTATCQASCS
Method: (§1) On the day of the experiment, the medium was removed and the cell monolayer was washed with 10 mL phosphate buffered saline (PBS) per flask. […] The flask was gently tapped and the cell suspension was pooled. The cell suspension was centrifuged for 3 min. at 150×g, and supernatant was discarded. The cell pellet was resuspended in assay buffer and cell number determined. Cell concentration was adjusted to 2×10^5 cells/mL. A 25 μL cell suspension aliquot was transferred into each well of a 96-well plate using Multi-drop dispenser (5000 cells/well). A 25 μL aliquot of diluted compound was transferred to the cell plate and the cell suspension incubated for 30 min. at RT on a plate shaker (450 rpm). The reaction was stopped by addition of lysis buffer and cAMP generated was determined using the cAMP dynamic 2 kit from Cisbio following the manufacturer's instructions. The time resolved fluorescence signal was determined using an EnVision (PerkinElmer). Cyclic AMP production was calculated based on standard curve run in parallel for every experiment. Data were analyzed using Excel Fit software.

[2] = biological target: T2, GIP-R (Homo sapiens, UniProt P48546); assay: Cyclic AMP (cAMP) assay, cell-suspension format, stably expressed human GIP-receptor in CHO cells
T2 construct: host or cells: CHO-K1 (cAMP Hunter)
T2 sequence (P48546 22-466): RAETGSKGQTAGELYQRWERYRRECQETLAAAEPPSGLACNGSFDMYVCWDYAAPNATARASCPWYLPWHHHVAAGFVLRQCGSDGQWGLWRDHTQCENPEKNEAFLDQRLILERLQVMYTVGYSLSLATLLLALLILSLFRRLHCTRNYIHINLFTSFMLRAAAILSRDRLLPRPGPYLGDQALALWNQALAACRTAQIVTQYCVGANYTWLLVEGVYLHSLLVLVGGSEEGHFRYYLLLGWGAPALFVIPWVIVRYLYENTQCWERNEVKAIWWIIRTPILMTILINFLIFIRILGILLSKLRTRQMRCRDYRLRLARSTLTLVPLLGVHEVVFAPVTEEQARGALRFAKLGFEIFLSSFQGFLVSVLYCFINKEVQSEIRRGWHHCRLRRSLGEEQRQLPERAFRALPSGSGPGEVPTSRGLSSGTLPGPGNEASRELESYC
Method: as §1

[3] = biological target: T3, human GCG-R (Homo sapiens, UniProt P47871); assay: Cyclic AMP (cAMP) assay, cell-suspension format, stably expressed human GCG-receptor in CHO cells; conditions: for EC50: Table 1, cAMP, CHO cells
T3 construct: host or cells: CHO-K1 (cAMP Hunter)
T3 sequence (P47871 26-477): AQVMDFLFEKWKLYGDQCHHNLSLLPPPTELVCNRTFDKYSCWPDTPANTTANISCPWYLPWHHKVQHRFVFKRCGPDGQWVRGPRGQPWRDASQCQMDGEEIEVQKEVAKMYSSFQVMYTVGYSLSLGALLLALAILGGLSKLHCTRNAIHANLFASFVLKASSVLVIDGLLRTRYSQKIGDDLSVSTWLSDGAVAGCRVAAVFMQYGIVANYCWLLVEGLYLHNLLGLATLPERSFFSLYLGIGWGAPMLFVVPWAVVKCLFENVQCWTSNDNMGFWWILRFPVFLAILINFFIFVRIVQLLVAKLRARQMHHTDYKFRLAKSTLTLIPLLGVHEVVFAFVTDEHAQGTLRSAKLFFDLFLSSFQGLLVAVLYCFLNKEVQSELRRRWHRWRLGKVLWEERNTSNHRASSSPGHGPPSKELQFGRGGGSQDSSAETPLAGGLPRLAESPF
Method: as §1

[4] = Table 1, relative to GLP-1 maximum
[5] = Table 1, relative to GIP maximum
[6] = Table 1, relative to GCG maximum

| EC50 ([1]; Table 1, cAMP, CHO cells) [nM] | EC50 ([2]; Table 1, cAMP, CHO cells) [nM] | Substance | human GLP-R % max GLP-1 [1, 4] [%] | human GIP-R % max GIP [2, 5] [%] | EC50 [3] [nM] | human GCG-R % max GCG [3, 6] [%] | human GLP-R % max GLP-1 ([1]; comparative table) [%] | human GIP-R % max GIP ([2]; comparative table) [%] | human GCG-R % max GCG ([3]; comparative table) [%] | EC50 ([2]; comparative table) [nM] | EC50 ([1]; comparative table) [nM] |
| --- | --- | --- | --- | --- | --- | --- | --- | --- | --- | --- | --- |
| 0.129 | > 600 | Dulaglutide [reference compound] | 98.2 | 13.8 | > 600 | 1.6 |  |  |  |  |  |
|  |  | I: Ac-[dY]ALGTFTSDK([γGlu-Palmitoyl])SKYLDERAAQDFVQWLLEGGPSSGAPPPSC-NH2 / II: GGGLPETGGSGS-OH (linker I:40-II:N via X1) [compound 12] |  |  |  |  | 94 | 90 | 100 |  |  |
|  |  | I: Ac-[dY]AVGTFTSDK([γGlu-Palmitoyl])SKYLDERAAQDFVQWLLEGGPSSGAPPPSC-NH2 / II: GGGLPETGGSGS-OH (linker I:40-II:N via X1) [compound 13] |  |  |  |  | 73 | 91 | 99 |  |  |
|  |  | I: Desaminotyrosyl-AEGTFTSDK([γGlu-Palmitoyl])SKYLDERAAQDFVQWLLEGGPSSGAPPPSC-NH2 / II: GGGLPETGGSGS-OH (linker I:39-II:N via X1) [compound 11] |  |  |  |  | 67 | 83 | 28 |  |  |
|  |  | I: H-Y[Aib]EGTFTSDK([γGlu-γGlu-Palmitoyl])SIYLDKQAA[Aib]EFVNWLLAGGPSSGAPPPSC-NH2 / II: GGGLPETGGSGS-OH (linker I:40-II:N via X1) [compound 9] | 99.9 | 90.7 | 8.86 | 109.0 | 91 | 100 | 109 | 0.01 |  |
|  |  | I: H-Y[Aib]EGTFTSDK([γGlu-γGlu-Palmitoyl])SIYLDKQAA[Aib]EFVNWLLAGGPSSGAPPPSC-NH2 / II: LPETGGSGS-OH (linker I:40-II:N via X1) [compound 10] | 96.7 | 86.7 |  | 100.2 | 96 | 97 | 98 | 0.01 | 0.02 |

Reference: patent publication US10137170B2, “Lipidated incretin receptor ligand human immunoglobulin Fc-region fusion polypeptides” (INDIANA UNIVERSITY RESEARCH AND TECHNOLOGY CORPORATION, priority 2013, dated 2018)
